According to US12643875B2, “Antibacterial compounds” (The Penn State Research Foundation, priority 2020, dated 2026):
Values after ≈ are worked out from the molar mass of the structure shown. Read-outs that look alike come from different tables or passages of the source.

Key:
bacteria = assay: Bacterial growth inhibition, broth microdilution (CLSI M07-A10); assay type: cell-based; conditions: for IC50: growth inhibition
From the text: Assay: Broth microdilution by the method of: Clinical and Laboratory Standards Institute, Ed., Methods for dilution antimicrobial susceptibility tests for bacteria that grow aerobically: M07-A10; approved standard (Committee for Clinical Laboratory Standards, Wayne, PA, 10. ed., 2015), Documents/Clinical and Laboratory Standards Institute.

[1] = test system: σ^E-mediated transcription; assay: σ^E-mediated transcription inhibition, E. coli reporter assay; assay type: cell-based; conditions: Escherichia coli
Procedure: The selected exemplified compounds were tested for inhibition of σ^E-mediated transcription using an E. coli reporter assay according to the protocol described in U.S. Pat. No. 8,962,550, which is incorporated herein by reference.

Plasma binding = assay type: in vitro ADME; conditions: for free compound: serum and plasma binding
[2] = test system: HeLa (cervical cancer cells); assay: Cytotoxicity, propidium iodide fluorescence, HeLa cells; assay type: cell-based, Human; set-up: key: % cytotoxicity relative to positive control (100% cell lysis); conditions: 24 h, relative to positive control (100% cell lysis)
Procedure: (§1) Assay: HUVEC (Human Umbilical Vein Endothelial Cells) and HeLa (cervical cancer cells) were seeded into 96-well culture plates at a density of 1.5×10^5 cells/ml in endothelial cell or DMEM growth medium, supplemented with 10% fetal bovine serum and no antibiotic. Cells were cultured for 24 h before assay setup. Compounds were diluted in the corresponding growth medium and tested in triplicate at 10× and 20× the minimum bacterial growth inhibitory concentrations. Growth media in the 96-well plate was aspirated off and replaced with media containing the test compounds or DMSO (0.5%, vol/vol). The plates were incubated at 37° C. in a 5% CO2 incubator for 24 h. A positive control sample was prepared by replacing media in designated wells with a solution containing a cell lysis reagent. Propidium iodide was then added at 5 μM/well and the plate was incubated for 10 minutes at room temperature. Fluorescence was then recorded using a SpectraMax i3 (Molecular Devices) at λex 535 nm/λem 617 nm. Cytotoxicity was determined by quantifying the fluorescence values for each compound relative to the positive control (100% cell lysis). For selected exemplified compounds, cytotoxicity against HeLa and HuVEC cells was measured at 10× and 20×MIC.

Serum binding = assay type: in vitro ADME
[3] = test system: HUVEC (Human Umbilical Vein Endothelial Cells); assay: Cytotoxicity, propidium iodide fluorescence, HuVEC cells; assay type: cell-based; set-up: key: % cytotoxicity relative to positive control (100% cell lysis); conditions: 24 h, relative to positive control (100% cell lysis)
Procedure: as §1

CYP (isoform not given) = assay: HLM CYP inhibition; conditions: human, human liver microsomes
CYP [4] = assay: HLM CYP inhibition
[5] = Solubility in growth medium of the transcription assay; assay type: physicochemical; set-up: key: *: poor solubility in test medium
[6] = Stability in human liver microsomes (intrinsic clearance)
CYP [7] = test system: CYP

In the case of Cc1cc(F)ccc1-c1cccc(NC(=O)c2cccc(Cl)c2)c1 [Compound 39732], the MIC (bacteria) is reported as 8.5 µg/mL (≈ 25 µM) and the IC50 (bacteria) is reported as 5.9 µg/mL (≈ 17.4 µM).

Compound c1ccc(-c2cccc(Nc3ccncc3)n2)cc1 [Compound 39711] has an MIC (bacteria) of 6.2 µg/mL (≈ 25.1 µM) and an IC50 (bacteria) of 3.7 µg/mL (≈ 15 µM).

With O=C(Nc1cccc(-c2ccccc2)c1)c1cccc(C(F)(F)F)c1 [Compound 39751] the IC50 [1] was 4.3 µg/mL (≈ 12.6 µM), the “% plasma binding” value (Plasma binding) was 99.9% and the free compound (Plasma binding) was “no detectable free compound”. The “Human Liver Microsomes Intrinsic Clearance (CLint)” value was 4.35 mL/min/g liver, the “Cytotoxicity at 10× MIC HeLa” value [2] was 9 and the “Cytotoxicity at 20× MIC HeLa” value [2] was 7. For the same compound, the MIC (bacteria) was 8.5 µg/mL (≈ 24.9 µM), the IC50 (bacteria) was 4.6 µg/mL (≈ 13.5 µM) and the “% serum binding” value (Serum binding) was 99.9%. For the same compound, the “Cytotoxicity at 10× MIC HuVEC” value [3] was 17, the “Cytotoxicity at 20× MIC HuVEC” value [3] was 14 and the IC50 (CYP (isoform not given)) was greater than 33 µM. The “inhibition of CYP” value (CYP [4]) was “no detectable inhibition”.

For Cc1cc(F)ccc1-c1cccc(NC(=O)c2cccc(Cl)c2)n1 [Compound 39720], the IC50 [1] was roughly 34.1 µg/mL (≈ 100 µM), the “Human Liver Microsomes Intrinsic Clearance (CLint)” value was 1.51 mL/min/g liver and the “Cytotoxicity at 10× MIC HeLa” value [2] was 8. For the same compound, the “Cytotoxicity at 20× MIC HeLa” value [2] was 8, the MIC (bacteria) was 4.3 µg/mL (≈ 12.6 µM) and the IC50 (bacteria) was 2.4 µg/mL (≈ 7.04 µM). The “solubility in test medium” value [5] was “*”, the “Cytotoxicity at 10× MIC HuVEC” value [3] was 10 and the “Cytotoxicity at 20× MIC HuVEC” value [3] was 10.

In the case of Cc1cc(F)ccc1-c1cccc(Nc2ccncc2)c1 [Compound 39744], the MIC (bacteria) is reported as 14 µg/mL (≈ 50.3 µM).

With Cc1cc(F)ccc1-c1cccc(Nc2ccc(N=[N+]=[N-])cc2)n1 [Compound 39714] the MIC (bacteria) was 64 µg/mL (≈ 200 µM).

For Cc1cc(F)ccc1-c1cccc(-c2cn(-c3ccncc3)nn2)c1 [Compound 39724], the IC50 [1] was 6.6 µg/mL (≈ 20 µM), the “% plasma binding” value (Plasma binding) was 99.5% and the “Human Liver Microsomes Intrinsic Clearance (CLint)” value was 0.37 mL/min/g liver. The “Cytotoxicity at 10× MIC HeLa” value [2] was 11, the “Cytotoxicity at 20× MIC HeLa” value [2] was 14 and the MIC (bacteria) was 3.3 to 4.1 µg/mL (≈ 9.99 to 12.4 µM). For the same compound, the IC50 (bacteria) was 1.6 to 2.3 µg/mL (≈ 4.84 to 6.96 µM), the “% serum binding” value (Serum binding) was 94.6% and the “Cytotoxicity at 10× MIC HuVEC” value [3] was 16. For the same compound, the “Cytotoxicity at 20× MIC HuVEC” value [3] was 19 and the IC50 (CYP (isoform not given)) was 3.55 µM.

For c1ccc(-c2cccc(-c3cn(-c4ccncc4)nn3)c2)cc1 [Compound 39748], the IC50 [1] was 2.6 µg/mL (≈ 8.71 µM), the “% plasma binding” value (Plasma binding) was 99.7% and the “Human Liver Microsomes Intrinsic Clearance (CLint)” value was 1.28 mL/min/g liver. For the same compound, the “Cytotoxicity at 10× MIC HeLa” value [2] was 14, the “Cytotoxicity at 20× MIC HeLa” value [2] was 14 and the MIC (bacteria) was 7.6 µg/mL (≈ 25.5 µM). For the same compound, the IC50 (bacteria) was 2.6 µg/mL (≈ 8.71 µM), the “% serum binding” value (Serum binding) was 99.7% and the “Cytotoxicity at 10× MIC HuVEC” value [3] was 15. For the same compound, the “Cytotoxicity at 20× MIC HuVEC” value [3] was 21 and the IC50 (CYP (isoform not given)) was 1.48 µM.

Cc1cc(F)ccc1-c1cccc(Nc2ccncc2)n1 [Compound 2170] showed an MIC (bacteria) of 14 µg/mL (≈ 50.1 µM) and an IC50 (bacteria) of 6.8 µg/mL (≈ 24.3 µM).

Compound Cc1cc(F)ccc1-c1cccc(Nc2ccc(S(C)(=O)=O)cc2)c1 [Compound 39734] has an MIC (bacteria) of 28 µg/mL (≈ 78.8 µM) and an IC50 (bacteria) of 22 µg/mL (≈ 61.9 µM).

Compound Cc1cc(F)ccc1-c1cc(Nc2ccccc2)ccn1 [Compound 39712] has an MIC (bacteria) of 21 µg/mL (≈ 75.5 µM).

Work on Cc1cc(F)ccc1-c1ccc(-c2cn(-c3ccncc3)nn2)cc1 [Compound 39730] yielded an MIC (bacteria) of 66 µg/mL (≈ 200 µM).

Cc1cc([N+](=O)[O-])ccc1-c1cccc(Nc2ccncc2)n1 [Compound 39709] gave an MIC (bacteria) of 117 µg/mL (≈ 382 µM).

Compound Cc1cc(F)ccc1-c1cccc(NC(=O)c2ccco2)c1 [Compound 39733] has an MIC (bacteria) of 29 µg/mL (≈ 98.2 µM) and an IC50 (bacteria) of 16 µg/mL (≈ 54.2 µM).

With Cc1ncc2n1-c1ccc(Cl)cc1C(c1ccccc1F)=NC2 [Midazolam control, Midazolam] the “Human Liver Microsomes Intrinsic Clearance (CLint)” value [6] was 9.04 mL/min/g liver.

Work on c1ccc(COc2ccc(-c3cccc(Nc4ccncc4)n3)cc2)cc1 [Compound 39718] yielded an MIC (bacteria) of 35 µg/mL (≈ 99 µM).

Cc1cc(F)ccc1-c1cccc(NS(=O)(=O)c2ccccc2)n1 [Compound 39705] gave an MIC (bacteria) of 34 µg/mL (≈ 99.3 µM) and an IC50 (bacteria) of 16 µg/mL (≈ 46.7 µM).

For Cc1cc(F)ccc1-c1cccc(-c2cn(C3CCSCC3)nn2)c1 [Compound 39735], the MIC (bacteria) was 35 µg/mL (≈ 99 µM).

With Cc1cc(F)ccc1-c1cccc(-c2cn(-c3cccc4ncccc34)nn2)c1 [Compound 39739] the MIC (bacteria) was 38 µg/mL (≈ 99.9 µM).

Compound Cc1cc(F)ccc1-c1cccc(NC(=O)c2ccccc2)n1 [Compound 39721] has an MIC (bacteria) of 20 µg/mL (≈ 65.3 µM).

For Cc1cc(F)ccc1-c1cccc(NS(=O)(=O)c2cccc3c(N(C)C)cccc23)n1 [Compound 39713], the MIC (bacteria) was 87 µg/mL (≈ 200 µM).

With Cc1cc(F)ccc1-c1cccc(Nc2ccccc2)n1 [Compound 39704] the IC50 [1] was 11 µg/mL (≈ 39.5 µM), the “% plasma binding” value (Plasma binding) was 99.9% and the free compound (Plasma binding) was “no detectable free compound”. For the same compound, the “IC50 for CYP inhibition over the MIC” value (CYP [7]) was “more than 5 ×”, the “Human Liver Microsomes Intrinsic Clearance (CLint)” value was 5.38 mL/min/g liver and the “Cytotoxicity at 10× MIC HeLa” value [2] was 11. The “Cytotoxicity at 20× MIC HeLa” value [2] was 11, the MIC (bacteria) was 1.7 to 3.5 µg/mL (≈ 6.11 to 12.6 µM) and the IC50 (bacteria) was 0.9 to 2.8 µg/mL (≈ 3.23 to 10.1 µM). For the same compound, the “% serum binding” value (Serum binding) was 100%, the “solubility in test medium” value [5] was “*” and the “Cytotoxicity at 10× MIC HuVEC” value [3] was 15. For the same compound, the “Cytotoxicity at 20× MIC HuVEC” value [3] was 21 and the IC50 (CYP (isoform not given)) was 13.5 µM.

c1cc(Nc2ccncc2)nc(C2CCCCC2)c1 [Compound 39710] showed an MIC (bacteria) of 51 µg/mL (≈ 201 µM).

Work on Cc1cc(F)ccc1-c1cccc(Nc2ccc([N+](=O)[O-])c3nonc23)n1 [Compound 39722] yielded an MIC (bacteria) of 73 µg/mL (≈ 200 µM).

In the case of Cc1cc(F)ccc1-c1cc(NC(=O)c2ccco2)ccn1 [Compound 39717], the MIC (bacteria) is reported as 50 µg/mL (≈ 169 µM).

With Cc1cc(F)ccc1-c1cccc(Nc2ccc(C#C[Si](C)(C)C)cc2)n1 [Compound 39715] the MIC (bacteria) was 75 µg/mL (≈ 200 µM).

For Cc1cc(F)ccc1-c1cccc(NC(=O)c2ccccc2)c1 [Compound 39731], the IC50 [1] was roughly 60 µg/mL (≈ 196 µM), the “% plasma binding” value (Plasma binding) was 99.8% and the “Human Liver Microsomes Intrinsic Clearance (CLint)” value was 2.12 mL/min/g liver. The “Cytotoxicity at 10× MIC HeLa” value [2] was 8, the “Cytotoxicity at 20× MIC HeLa” value [2] was 10 and the MIC (bacteria) was 7.6 µg/mL (≈ 24.9 µM). The IC50 (bacteria) was 1.6 to 3.4 µg/mL (≈ 5.24 to 11.1 µM), the “% serum binding” value (Serum binding) was 99.7% and the “solubility in test medium” value [5] was “*”. For the same compound, the “Cytotoxicity at 10× MIC HuVEC” value [3] was 14, the “Cytotoxicity at 20× MIC HuVEC” value [3] was 14 and the IC50 (CYP (isoform not given)) was greater than 33 µM. The “inhibition of CYP” value (CYP [4]) was “no detectable inhibition”.
